Experiment [1] has as its target T1, Recombinant ROCK1 (amino acids 1-477) (Homo sapiens, UniProt Q13464).
T1 construct: Recombinant ROCK1 (amino acids 1-477)
In words: ROCK inhibition assay, LANCE Ultra TR-FRET kinase assay. The following applies: at Km of ATP (table title); method: 1 mM ATP, 50 nM ULight-CREBtide substrate, 1 hour, room temperature. The class given is biochemical. The protocol: (§1) Kinase IC50 was determined through an in vitro assay based on LANCE Ultra TR-FRET (Time-Resolved Fluorescence Resonance Energy Transfer) homogeneous technologies method (Perkin Elmer). Recombinant ROCK1 (amino acids 1-477) and ROCK2 (amino acids 5-554) proteins were purchased from Carna Biosciences and SignalChem. Compound activities were measured by Envision and IC50s were calculated. The assays were performed in white LUMITRAC™ 200 96 well half-area microplates from Greiner Bio-One. The kinase reaction buffer consisted of 50 mM HEPES pH 7.5, 1 mM EGTA, 10 mM MgCl2, 2 mM DTT and 0.01% Tween-20. Kinases were incubated with 50 nM (ULight-CREBtide) substrate in the presence of 1 mM (ROCK1) or 1 mM (ROCK2) of ATP. The kinase reaction was carried out for 1 hour before addition of a stopping buffer to a final of 10 mM EDTA and 0.6 nM of LANCE Ultra Europium anti-phospho-CREB (Ser133) antibody (PerkinElmer TRF0200) in LANCE detection buffer. All assay incubations were performed at room temperature, and the microplates were sealed with polyester film during that time. The reaction was incubated for 1 hour, and the signal was read in Envision in TR-FRET mode (excitation at 320 nm and emission at 615/665 nm).
(§2) As used herein, a way to describe potency of inhibitory activity (nM) is a value of inhibitory activity at 50% (IC50).
For orientation: TR-FRET usually uses a lanthanide donor and a delayed reading to cut background.

Experiment [2] addresses T2, Recombinant ROCK2 (amino acids 5-554) (Homo sapiens, UniProt O75116).
T2 construct: ROCK2 (amino acids 5-554)
The experiment is described as above. The format is biochemical. The conditions noted are these: at Km of ATP (table title); method: 1 mM ATP, 50 nM ULight-CREBtide substrate, 1 hour, room temperature. The method, then:
as §1, §2

A value given as a limit tells only on which side of the number the result lay.

T2 sequence (O75116 5-554): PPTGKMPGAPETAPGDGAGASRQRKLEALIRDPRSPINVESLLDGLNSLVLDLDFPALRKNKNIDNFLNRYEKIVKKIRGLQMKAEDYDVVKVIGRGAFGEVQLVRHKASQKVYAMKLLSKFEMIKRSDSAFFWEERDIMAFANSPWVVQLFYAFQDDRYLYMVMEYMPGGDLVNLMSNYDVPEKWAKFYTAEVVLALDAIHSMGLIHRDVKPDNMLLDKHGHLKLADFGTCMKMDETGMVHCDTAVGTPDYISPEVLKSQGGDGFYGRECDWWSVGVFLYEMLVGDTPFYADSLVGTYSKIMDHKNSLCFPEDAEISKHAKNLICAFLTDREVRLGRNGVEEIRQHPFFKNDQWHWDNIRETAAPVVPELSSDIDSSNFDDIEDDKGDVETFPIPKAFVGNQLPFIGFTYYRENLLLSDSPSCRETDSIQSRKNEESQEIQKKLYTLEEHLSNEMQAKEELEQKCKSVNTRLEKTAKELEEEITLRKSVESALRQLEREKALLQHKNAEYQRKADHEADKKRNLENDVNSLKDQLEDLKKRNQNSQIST
T1 sequence (Q13464 1-477): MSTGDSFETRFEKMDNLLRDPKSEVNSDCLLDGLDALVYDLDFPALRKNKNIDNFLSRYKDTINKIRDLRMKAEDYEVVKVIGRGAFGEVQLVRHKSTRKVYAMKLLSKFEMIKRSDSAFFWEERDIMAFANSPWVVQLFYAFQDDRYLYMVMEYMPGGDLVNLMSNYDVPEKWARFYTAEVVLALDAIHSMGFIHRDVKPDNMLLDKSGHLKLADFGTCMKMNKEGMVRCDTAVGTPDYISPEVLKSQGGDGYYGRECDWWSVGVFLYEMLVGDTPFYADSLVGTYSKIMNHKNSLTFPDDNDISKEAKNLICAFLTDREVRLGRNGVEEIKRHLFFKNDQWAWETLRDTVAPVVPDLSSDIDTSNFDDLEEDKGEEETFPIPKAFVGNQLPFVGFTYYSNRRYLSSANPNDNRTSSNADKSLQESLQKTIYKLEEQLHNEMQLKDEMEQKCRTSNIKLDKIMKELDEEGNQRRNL

For orientation: IC50 means the point on the concentration scale where inhibition reaches its midpoint. For `O=C(c1cn(CCO)c2cc(-c3c[nH]nc3F)ccc12)C1COc2ccc(Cl)cc2C1` (stereo not drawn) [Compound 2-16], the IC50 was 11 to 50 nM in experiment [1] and under 10 nM in experiment [2].

In the case of `Cc1n[nH]cc1-c1ccc2c(C(=O)C3COc4ccc(F)cc4C3)cn(CCO)c2n1` (stereo not drawn) [Compound 1-15], the IC50 in experiment [1] and in experiment [2] was under 10 nM throughout.

Take `O=C(c1cn(CCO)c2nc(-c3c[nH]nc3Cl)ccc12)C1COc2ccc(Cl)cc2C1` (stereo not drawn) [Compound 1-4]: the values for the IC50 in experiment [1] and in experiment [2] were 11 to 50 nM and under 10 nM, respectively.

As to `C[C@H](O)Cn1cc(C(=O)C2COc3ccc(Cl)cc3C2)c2cnc(-c3cn[nH]c3Cl)nc21` (stereo partly drawn) [Compound 1-45], the values for the IC50 in experiment [1] and in experiment [2] were 11 to 50 nM and under 10 nM, respectively.

Take `COc1ccc2c(c1)CC(C(=O)c1cn(C[C@H](C)O)c3cc(-c4cn[nH]c4Cl)ncc13)CO2` (stereo partly drawn) [Compound 1-27]: the IC50 in experiment [1] and in experiment [2] was under 10 nM in each case.

For the molecule `CC(O)Cn1cc(C(=O)C2COc3ccc(Cl)cc3C2)c2ccc(-c3c[nH]nc3Cl)cc21` (stereo not drawn) [Compound 1-39], the IC50 in experiment [1] and in experiment [2] was 11 to 50 nM throughout.

For `CC(C)(O)Cn1cc(C(=O)[C@@H]2COc3ccc(Cl)cc3C2)c2cnc(-c3c[nH]nc3Cl)cc21` [Compound 1-19], the 50% inhibitory concentration (IC50) in experiment [1] and in experiment [2] was under 10 nM each time.

With `O=C(c1cn(CCO)c2cc(-c3cn[nH]c3)ccc12)C1COc2ccc(F)cc2C1` (stereo not drawn) [Compound 2-7], the half-maximal inhibitory concentration (IC50) in experiment [1] and in experiment [2] was under 10 nM each time.

`O=C(c1cn(CCO)c2cc(-c3cn[nH]c3)ccc12)C1COc2cc(F)ccc2O1` (stereo not drawn) [Compound 2-11]: the concentration for half-maximal inhibition (IC50) in experiment [1] was 51 to 500 nM; in experiment [2] it was under 10 nM.

On to `COc1ccc2c(c1)CC(C(=O)c1cn(CCO)c3cc(-c4cn[nH]c4F)ncc13)CO2` (stereo not drawn) [Compound 1-24], for which the IC50 in experiment [1] and in experiment [2] was under 10 nM in each case.

With `COc1n[nH]cc1-c1ccc2c(C(=O)[C@@H]3COc4ccc(Cl)cc4C3)cn(CCO)c2c1` (single isomer, unassigned) [Compound 2-18], the IC50 in experiment [1] was 11 to 50 nM; in experiment [2], under 10 nM.

For the molecule `COc1[nH]ncc1-c1ncc2c(C(=O)C3COc4ccc(Cl)cc4C3)cn(CC(C)(C)O)c2n1` (stereo not drawn) [Compound 1-58], the IC50 in experiment [1] was 11 to 50 nM; in experiment [2], under 10 nM.

As for `COc1n[nH]cc1-c1ccc2c(C(=O)C3Cc4ccccc4O3)nn(CCO)c2c1` (stereo not drawn) [Compound 2-30], the IC50 in experiment [1] and in experiment [2] was 51 to 500 nM each time.

For the molecule `COc1ccc2c(c1)OCC(C(=O)c1cn(CCO)c3cc(-c4cn[nH]c4)ccc13)C2` (stereo not drawn) [Compound 2-8], the concentration for half-maximal inhibition (IC50) in experiment [1] and in experiment [2] was 51 to 500 nM each time.

With `O=C(c1cn(CCO)c2cc(-c3c[nH]nc3Cl)cnc12)C1COc2ccc(Cl)cc2C1` (stereo not drawn) [Compound 1-5], the 50% inhibitory concentration (IC50) in experiment [1] is 51 to 500 nM; in experiment [2], 11 to 50 nM.

For `O=C(c1cn(CCO)c2cc(-c3cn[nH]c3)ccc12)C1COc2ccc(Cl)cc2O1` (stereo not drawn) [Compound 2-13], the IC50 in experiment [1] lay in the range of 51 to 500 nM; in experiment [2], 11 to 50 nM.

For `COCCn1nc(C(=O)[C@@H]2COc3ccccc3O2)c2ccc(-c3cn[nH]c3)cc21` [Compound 2-25], the IC50 in experiment [1] and in experiment [2] was 11 to 50 nM each time.

`C[C@@H](O)Cn1cc(C(=O)C2COc3ccc(Cl)cc3C2)c2cnc(-c3c[nH]nc3Cl)cc21` (stereo partly drawn) [Compound 1-8]: the IC50 in experiment [1] was 11 to 50 nM; in experiment [2], under 10 nM.

Consider `COc1ccc2c(c1)CC(C(=O)c1cn(C[C@H](C)O)c3cc(-c4cn[nH]c4F)ncc13)CO2` (stereo partly drawn) [Compound 1-25], for which the half-maximal inhibitory concentration (IC50) is 11 to 50 nM in experiment [1] and under 10 nM in experiment [2].

Regarding `COc1ccc2c(c1)CC(C(=O)c1cn(CCO)c3cc(-c4c[nH]nc4Cl)ccc13)CO2` (stereo not drawn) [Compound 2-15], the 50% inhibitory concentration (IC50) in experiment [1] and in experiment [2] was under 10 nM throughout.

On to `C[C@@H](O)Cn1cc(C(=O)C2COc3ccc(F)cc3C2)c2cnc(-c3cn[nH]c3F)nc21` (stereo partly drawn) [Compound 1-48], for which the 50% inhibitory concentration (IC50) in experiment [1] and in experiment [2] was under 10 nM each time.

For `COc1ccc2c(c1)OC(C(=O)c1cn(CCO)c3cc(-c4cn[nH]c4)ccc13)CO2` (stereo not drawn) [Compound 2-14], the figures for the half-maximal inhibitory concentration (IC50) in experiment [1] and in experiment [2] were 11 to 50 nM and under 10 nM, respectively.

Regarding `O=C(c1cn(CCO)c2cc(-c3c[nH]c4ncccc34)ccc12)C1COc2ccccc2O1` (stereo not drawn) [Compound 2-3], the IC50 in experiment [1] lay in the range of 51 to 500 nM; in experiment [2], 11 to 50 nM.

With `COc1[nH]ncc1-c1cc2c(cn1)c(C(=O)C1COc3ccc(Cl)cc3C1)cn2CCN(C)C` (stereo not drawn) [Compound 1-60, (6-chlorochroman-3-yl)(1-(2-(dimethylamino)ethyl)-6-(5-methoxy-1H-pyrazol-4-yl)-1H-pyrrolo[3,2-c]pyridin-3-yl)methanone metanesulfonic acid], the IC50 in experiment [1] and in experiment [2] was under 10 nM throughout.

As for `COc1n[nH]cc1-c1ccc2c(C(=O)C3COc4ccc(Cl)cc4C3)nn(C[C@@H](C)O)c2c1` (stereo partly drawn) [Compound 2-34], the IC50 in experiment [1] was in the range of 51 to 500 nM; in experiment [2] it was 11 to 50 nM.

Turning to `COc1n[nH]cc1-c1cc2c(cn1)c(C(=O)C1COc3ccc(Cl)cc3C1)cn2CCO` (stereo not drawn) [Compound 1-1], the IC50 in experiment [1] and in experiment [2] was over 501 nM throughout.

Consider `O=C(c1cn(CCO)c2cc(-c3cn[nH]c3)ccc12)C1COc2cc(Cl)c(Cl)cc2O1` (stereo not drawn) [Compound 2-12], for which the half-maximal inhibitory concentration (IC50) in experiment [1] and in experiment [2] was 51 to 500 nM throughout.

In the case of `O=C(c1nn(CCO)c2cc(-c3cn[nH]c3)ccc12)C1COc2ccccc2C1` (stereo not drawn) [Compound 3-2], the IC50 in experiment [1] was 11 to 50 nM; in experiment [2], under 10 nM.

For the molecule `O=C(c1cn(CC2CC(O)C2)c2cc(-c3cn[nH]c3F)ncc12)C1COc2ccc(Cl)cc2C1` (stereo not drawn) [Compound 1-37], the IC50 in experiment [1] fell in the range of 51 to 500 nM; in experiment [2], 11 to 50 nM.

Consider `CC(O)Cn1cc(C(=O)[C@@H]2COc3ccc(Cl)cc3C2)c2ccc(-c3c[nH]nc3F)cc21` (stereo partly drawn) [Compound 1-41], for which the IC50 in experiment [1] was 11 to 50 nM; in experiment [2], under 10 nM.

Take `O=C(c1nn(CCO)c2cc(-c3cn[nH]c3)ccc12)C1COc2ccc(Cl)cc2O1` (stereo not drawn) [Compound 3-4]: the half-inhibitory concentration (IC50) in experiment [1] was 51 to 500 nM; in experiment [2], under 10 nM.

Turning to `O=C(c1cn(CCO)c2cc(-c3cn[nH]c3)ccc12)C1COc2ccccc2C1` (stereo not drawn) [Compound 2-23], the half-inhibitory concentration (IC50) in experiment [1] and in experiment [2] was 11 to 50 nM each time.

Turning to `COc1ccc2c(c1)CC(C(=O)c1cn(CCO)c3cc(-c4c[nH]nc4Cl)ncc13)CO2` (stereo not drawn) [Compound 1-23], the IC50 in experiment [1] and in experiment [2] was under 10 nM throughout.

In the case of `O=C(c1cn(CCO)c2cc(-c3c[nH]nc3Cl)ccc12)C1COc2ccccc2O1` (stereo not drawn) [Compound 2-4], the IC50 in experiment [1] and in experiment [2] was under 10 nM in each case.

`COc1n[nH]cc1-c1ccc2c(C(=O)[C@H]3COc4ccc(Cl)cc4C3)cn(CCO)c2c1` (single isomer, unassigned) [Compound 2-19]: the concentration for half-maximal inhibition (IC50) in experiment [1] was over 501 nM; in experiment [2] it was 51 to 500 nM.

Consider `COc1[nH]ncc1-c1cc2c(cn1)c(C(=O)[C@@H]1COc3ccc(Cl)cc3C1)cn2C[C@H](C)O` [Compound 1-33], for which the figures for the IC50 in experiment [1] and in experiment [2] were 11 to 50 nM and under 10 nM, respectively.

As for `COc1n[nH]cc1-c1ccc2c(C(=O)[C@@H]3COc4ccc(Cl)cc4C3)cn(CC(C)O)c2c1` (stereo partly drawn) [Compound 1-42], the results for the IC50 in experiment [1] and in experiment [2] were 11 to 50 nM and under 10 nM, respectively.

Take `CC(C)(O)Cn1cc(C(=O)[C@@H]2COc3ccc(Cl)cc3C2)c2cnc(-c3cn[nH]c3F)nc21` [Compound 1-55]: the IC50 in experiment [1] and in experiment [2] was under 10 nM in each case.

On to `C[C@@H](O)Cn1cc(C(=O)[C@@H]2COc3ccc(F)cc3C2)c2cnc(-c3cn[nH]c3F)nc21` [Compound 1-49], for which the concentration for half-maximal inhibition (IC50) in experiment [1] and in experiment [2] was under 10 nM each time.

`COc1[nH]ncc1-c1ncc2c(C(=O)C3COc4ccc(F)cc4C3)cn(CC(C)(C)O)c2n1` (stereo not drawn) [Compound 1-52]: the IC50 in experiment [1] is 51 to 500 nM; in experiment [2], 11 to 50 nM.

In the case of `CC(C)(O)Cn1cc(C(=O)[C@H]2COc3ccc(Cl)cc3C2)c2cnc(-c3c[nH]nc3Cl)cc21` [Compound 1-18], the IC50 in experiment [1] is over 501 nM; in experiment [2] it was 51 to 500 nM.

In the case of `O=C(c1nn(CCO)c2cc(-c3cn[nH]c3)ccc12)C1COc2ccc(F)cc2C1` (stereo not drawn) [Compound 3-1, (6-fluorochroman-3-yl)(1-(2-hydroxyethyl)-6-(1H-pyrazol-4-yl)-1H-indazol-3-yl)methanone], the results for the IC50 in experiment [1] and in experiment [2] were 11 to 50 nM and under 10 nM, respectively.

For the molecule `C[C@@H](O)Cn1cc(C(=O)C2COc3ccc(Cl)cc3C2)c2cnc(-c3cn[nH]c3F)nc21` (stereo partly drawn) [Compound 1-47], the figures for the IC50 in experiment [1] and in experiment [2] were 11 to 50 nM and under 10 nM, respectively.

In the case of `CC(O)Cn1cc(C(=O)[C@@H]2COc3ccc(Cl)cc3C2)c2ccc(-c3c[nH]nc3Cl)cc21` (stereo partly drawn) [Compound 1-40], the IC50 is 11 to 50 nM in experiment [1] and under 10 nM in experiment [2].

For `COc1ccc2c(c1)CC(C(=O)c1cn(CC(C)(C)O)c3cc(-c4cn[nH]c4F)ncc13)CO2` (stereo not drawn) [Compound 1-28], the concentration for half-maximal inhibition (IC50) in experiment [1] and in experiment [2] was under 10 nM throughout.

Values taken from patent US20240368154A1 (GENOSCO Inc., priority 2023, published 2024).
